# Measured values reported in US20260327263A1, “Anti-Bacterial Peptides” (priority 2023, published 2026).
# Where a SMILES comes first, the peptide text is derived from it. Where no end group is shown, it is not given here. [ ]: non-standard residue; d: D form. Bip = N[C@@H](Cc1ccc(-c2ccccc2)cc1)C(=O)O; 2Nal = N[C@@H](Cc1ccc2ccccc2c1)C(=O)O; Aib = CC(C)(N)C(=O)O
# What was measured:
# [1] = system: Staphylococcus aureus (SA); assay: Broth microdilution anti-bacterial assay (CLSI), Staphylococcus aureus; assay type: cell-based; conditions: SA; for MIC: overnight, 37° C., ≥99% inhibition; for MBC: ≥99% killing
# Procedure: (§1) To evaluate their anti-bacterial potency, broth microdilution method as per the CLSI guidelines 1 was used. […] The anti-bacterial potency of the tested agents is quantified using minimum inhibitory concentration (MIC) and minimum bactericidal concentration (MBC). […] To obtain the MBC data, 1X, 2X and 4× MIC of the peptide variants were plated to obtain the number of viable colonies compared to the original inoculum.
# (§2) Pseudomonas aeruginosa (ATCC 14213, PA), and methicillin resistant Staphylococcus aureus (BAA1717-USA 300, SA) were obtained from The American Type Culture Collection (ATCC).
# (§3) Examination of the potency of modified short peptides against PA and SA strains was performed by using the broth microdilution protocol from the Clinical and Laboratory Standards Institute (CLSI) guidelines (CLSI 2012) as described. Briefly, five freshly plated bacteria colonies were grown in cation adjusted MH2 broth (BD Biosciences) in a shaker incubator at 37° C., 220 RPM. Cells were grown to an optical density (OD600) of ~0.2 measured using a Microplate Spectrophotometer (Molecular Devices Spectra Max Plus). 100 μL of microbial culture containing ~5×10^5 CFU/mL of bacteria in the respective broths were introduced into each well containing 100 μL of peptides and incubated overnight at 37° C. Next, to check the bactericidal effects, 100 μL from each well was transferred and spread on sterile MH2 agar plates. The plates were incubated overnight at 37° C. and the number of colonies forming units (CFU) were calculated the following day. Readings of bacteria grown in media without any treatments were normalized to 100% as media control. For the mixed infection study, three freshly plated bacteria colonies each from PA, SA and ST plates were grown together in cation adjusted MH2 broth and proceeded as described above.
# [2] = system: Pseudomonas aeruginosa (PA); assay: Broth microdilution anti-bacterial assay (CLSI), Pseudomonas aeruginosa; assay type: cell-based, Pseudomonas aeruginosa (ATCC 14213); conditions: for MIC / MBC: PA; for MIC: overnight, 37° C., ≥99% inhibition; for MBC: ≥99% killing
# Procedure: as §1, §2, §3
Molecule,MIC [1],MBC [1],MIC [2],MBC [2],anti-bacterial activity (in words) ([2]; PA and SA)
CC(C)C[C@H](NC(=O)[C@H](CO)NC(=O)[C@H](CC(C)C)NC(=O)C(C)(C)NC(=O)[C@H](CC(C)C)NC(=O)[C@H](CCCCN)NC(=O)[C@H](CC(C)C)NC(=O)C(C)(C)NC(=O)[C@H](CCCCN)NC(=O)[C@H](CCCCN)NC(=O)[C@H](CO)NC(=O)[C@H](CC(C)C)NC(=O)[C@H](CCCCN)NC(=O)[C@H](CC(C)C)NC(=O)[C@H](Cc1c[nH]c2ccccc12)NC(=O)[C@H](CCCCN)NC(=O)[C@H](CCCCN)NC(=O)[C@H](CC(C)C)NC(=O)[C@H](CC(C)C)NC(=O)[C@H](CCCCN)NC(=O)[C@@H](N)CCCCN)C(N)=O [V8LQ19LA1418Aib] (H-KKLLKKWLKLSKK[Aib]LKL[Aib]LSL-NH2),1.56 µM,1.56 µM,3.126 µM,3.125 µM,–
KKWVKLSKKALKLAQSL-NH2 [E1AM2 N-4],–,–,>25 µM,–,–
KLLKKWVKLSKKALKLAQSL-NH2 [E1AM2 N-1],–,–,12.5 µM,–,–
KKLLKKWVKLSKKALKLAQ-NH2 [E1AM2 C-2],–,–,25 µM,–,–
LLKKWVKLSKKALKLAQSL-NH2 [E1AM2 N-2],–,–,25 µM,–,–
CC(C)C[C@H](NC(=O)[C@H](CO)NC(=O)[C@H](CC(C)C)NC(=O)[C@H](C)NC(=O)[C@H](CC(C)C)NC(=O)[C@H](CCCCN)NC(=O)[C@H](CC(C)C)NC(=O)[C@H](C)NC(=O)[C@H](CCCCN)NC(=O)[C@H](CCCCN)NC(=O)[C@H](CO)NC(=O)[C@H](CC(C)C)NC(=O)[C@H](CCCCN)NC(=O)[C@H](CC(C)C)NC(=O)[C@H](Cc1ccc(-c2ccccc2)cc1)NC(=O)[C@H](CCCCN)NC(=O)[C@H](CCCCN)NC(=O)[C@H](CC(C)C)NC(=O)[C@H](CC(C)C)NC(=O)[C@H](CCCCN)NC(=O)[C@@H](N)CCCCN)C(N)=O [W7BipV8LQ19L] (H-KKLLKK[Bip]LKLSKKALKLALSL-NH2),1.58 µM,1.56 µM,3.325 µM,3.125 µM,–
CC(C)C[C@H](NC(=O)[C@H](CO)NC(=O)[C@H](CC(C)C)NC(=O)[C@H](C)NC(=O)[C@H](CC(C)C)NC(=O)[C@H](CCCCN)NC(=O)[C@H](CC(C)C)NC(=O)[C@H](C)NC(=O)[C@H](CCCCN)NC(=O)[C@H](CCCCN)NC(=O)[C@H](CO)NC(=O)[C@H](CC(C)C)NC(=O)[C@H](CCCCN)NC(=O)[C@H](CC(C)C)NC(=O)[C@H](Cc1ccc2ccccc2c1)NC(=O)[C@H](CCCCN)NC(=O)[C@H](CCCCN)NC(=O)[C@H](CC(C)C)NC(=O)[C@H](CC(C)C)NC(=O)[C@H](CCCCN)NC(=O)[C@@H](N)CCCCN)C(N)=O [W72NalV8LQ19L] (H-KKLLKK[2Nal]LKLSKKALKLALSL-NH2),1.56 µM,1.56 µM,1.56 µM,1.66 µM,–
KKLLKKLVKLSKKALKLAQSL-NH2 [W7L],6.25 µM,6.25 µM,3.125 µM,3.125 µM,reduced MIC against PA
KKLLKKWVKLSKKAL-NH2 [E1AM2 C-6],–,–,>25 µM,–,–
KKLLKKWVKLSKKALKLAQS-NH2 [E1AM2 C-1],–,–,>25 µM,–,–
Ac-KKLLKKWVKLSKKALKLAQSL-NH2 [Ac-E1AM2-NH2],–,–,12.5 µM,12.5 µM,–
LKKWVKLSKKALKLAQSL-NH2 [E1AM2 N-3],–,–,12.5 µM,–,–
KWVKLSKKALKLAQSL-NH2 [E1AM2 N-5],–,–,>25 µM,–,–
KKLLKKWVKLSKKALK-NH2 [E1AM2 C-5],–,–,>25 µM,–,–
KKLLKKWVKLSKKALKL-NH2 [E1AM2 C-4],–,–,>12.5 µM,–,–
KKLLKKWVKLSKKALKLA-NH2 [E1AM2 C-3],–,–,6.25 µM,–,–
WVKLSKKALKLAQSL-NH2 [E1AM2 N-6],–,–,>25 µM,–,–
Ac-KKLLKKWVKLSKKALKLAQSL [Ac-E1AM2],–,–,25 µM,25 µM,–
